Source: patent US20250333388A1, “OXADIAZOLONE COMPOUNDS AND HERBICIDAL COMPOSITIONS AND USES THEREOF” (SHANDONG BINNONG TECHNOLOGY CO., LTD., priority 2023, published 2025)

What was measured:
Format in all cases: in vivo
[1] = system: abutilon; assay: Test of herbicidal activity, post-seedling stem and leaf spray in greenhouse, abutilon; conditions: for herbicidal activity against abutilon compared with Control compounds A, B and C: at different doses, summary of Table 5; for Abutilon (%) control effect: post-seedling stem and leaf spray
Protocol: (§1) Seeds of broadleaf weeds (abutilon, Solanum nigrum) or gramineous weeds (crabgrass, barnyard grass) were sown into nutrient soil in plastic cups, respectively, and then covered with soil, compacted, watered, and further cultivated in a greenhouse by conventional methods. The stems and leaves of the weeds were sprayed when the weeds reached the 2- to 3-leaf stage. The test compounds of the present application were dissolved in acetone respectively, followed by addition of Tween 80. The solution was diluted with a certain amount of water to a certain solubility, and then sprayed onto the plants using a spray tower. The test was repeated three times. After drying naturally in the shade, the plants were put in a greenhouse and managed according to conventional methods. The growth and development of weeds were observed, and the control effect of the test agent on weeds was checked visually periodically, which was expressed by 0-100%, with “0” representing no control effect, and “100%” representing complete killing or severe inhibition.

[2] = system: Solanum nigrum; assay: Test of herbicidal activity, post-seedling stem and leaf spray in greenhouse, Solanum nigrum; conditions: for herbicidal activity against Solamum nigrum compared with Control compounds A, B and C: at different doses, summary of Table 5; for Solanum nigrum (%) control effect: post-seedling stem and leaf spray
Protocol: as §1

[3] = system: crabgrass; assay: Test of herbicidal activity, post-seedling stem and leaf spray in greenhouse, crabgrass; conditions: for herbicidal activity against crabgrass compared with Control compounds A, B and C: at different doses, summary of Table 5; for Crabgrass (%) control effect: post-seedling stem and leaf spray
Protocol: as §1

[4] = system: barnyard grass; assay: Test of herbicidal activity, post-seedling stem and leaf spray in greenhouse, barnyard grass; conditions: for herbicidal activity against barnyard grass compared with Control compounds A, B and C: at different doses, summary of Table 5; for Barnyard grass (%) control effect: post-seedling stem and leaf spray
Protocol: as §1

[5] = system: corn; assay: Safety testing on corn, stem and leaf spray in greenhouse; conditions: for inhibitory effect on corn (crop safety): at different doses, as compared to Control compounds A, B, and C, summary of Table 6; for Corn (%) safety (crop damage): stem and leaf spray
Protocol: (§2) The seeds of corn and rice were sown into nutrient soil in plastic cups, respectively, then covered with soil, compacted, watered, and further cultivated in a greenhouse by conventional methods. The stems and leaves of the crops were sprayed when the crops reached the 2- to 3-leaf stage. The test compounds of the present application were dissolved in acetone, followed by addition of Tween 80. The solution was then diluted with a certain amount of water to a certain solubility, and sprayed onto the plants using a spray tower. The test was repeated three times. After drying naturally in the shade, the plants were put in a greenhouse and managed according to conventional methods. The growth and development of corn and rice were observed, and the safety of the test agent on corn and rice was checked visually periodically. A safety grading standard was represented by 0-100%, with “O” representing no damage to crops, and “100%” representing complete killing or severe inhibition of crops.

[6] = system: rice; assay: Safety testing on rice, stem and leaf spray in greenhouse; conditions: for inhibitory effect on rice (crop safety): at different doses, as compared to Control compounds A, B, and C, summary of Table 6; for Rice (%) safety (crop damage): stem and leaf spray
Protocol: as §2

[7] = dose 300 g a.i/ha, 0 = no control effect, 100% = complete killing or severe inhibition
[8] = dose 300 g a.i/ha, 0 = no damage to crops, 100% = complete killing or severe inhibition

Row | Compound | herbicidal activity against abutilon compared with Control compounds A, B and C [1] | Abutilon (%) control effect ([1]; dose 37.5 g a.i/ha) [%] | Abutilon (%) control effect ([1]; dose 75 g a.i/ha) [%] | Abutilon (%) control effect ([1]; dose 150 g a.i/ha) [%] | Abutilon (%) control effect [1, 7] [%] | herbicidal activity against Solamum nigrum compared with Control compounds A, B and C [2] | Solanum nigrum (%) control effect ([2]; dose 37.5 g a.i/ha) [%] | Solanum nigrum (%) control effect ([2]; dose 75 g a.i/ha) [%] | Solanum nigrum (%) control effect ([2]; dose 150 g a.i/ha) [%] | Solanum nigrum (%) control effect ([2]; dose 300 g a.i/ha) [%] | herbicidal activity against crabgrass compared with Control compounds A, B and C [3] | Crabgrass (%) control effect ([3]; dose 37.5 g a.i/ha) [%] | Crabgrass (%) control effect ([3]; dose 75 g a.i/ha) [%] | Crabgrass (%) control effect ([3]; dose 150 g a.i/ha) [%] | Crabgrass (%) control effect ([3]; dose 300 g a.i/ha) [%] | herbicidal activity against barnyard grass compared with Control compounds A, B and C [4] | Barnyard grass (%) control effect ([4]; dose 37.5 g a.i/ha) [%] | Barnyard grass (%) control effect ([4]; dose 75 g a.i/ha) [%] | Barnyard grass (%) control effect ([4]; dose 150 g a.i/ha) [%] | Barnyard grass (%) control effect ([4]; dose 300 g a.i/ha) [%] | also measured
1 | Cc1nn(Cc2c(S(C)(=O)=O)ccc(C(=O)c3c(C)nn(C)c3OC(=O)c3cnn(C)c3Cl)c2Cl)c(=O)o1 [Compound 218] | better herbicidal activities | 55 | 80 | 90 | 95 | better herbicidal activities | 50 | 70 | 90 | 95 | better herbicidal activities | 45 | 65 | 80 | 85 | better herbicidal activities | 50 | 70 | 85 | 90 | –
2 | Cc1nn(Cc2c(S(C)(=O)=O)ccc(C(=O)c3c(C)nn(C)c3O)c2Cl)c(=O)o1 [Compound 58] | – | – | – | – | – | – | – | – | – | – | – | – | – | – | – | – | – | – | – | – | inhibitory effect on corn (crop safety) [5]: no significant inhibitory effect; Corn (%) safety (crop damage) ([5]; dose 37.5 g a.i/ha): 0%; Corn (%) safety (crop damage) ([5]; dose 75 g a.i/ha): 0%; Corn (%) safety (crop damage) ([5]; dose 150 g a.i/ha): 0%; Corn (%) safety (crop damage) [5, 8]: 0%; inhibitory effect on rice (crop safety) [6]: no significant inhibitory effect; Rice (%) safety (crop damage) ([6]; dose 37.5 g a.i/ha): 0%; Rice (%) safety (crop damage) ([6]; dose 75 g a.i/ha): 0%; Rice (%) safety (crop damage) ([6]; dose 150 g a.i/ha): 0%; Rice (%) safety (crop damage) ([6]; dose 300 g a.i/ha): 5%
3 | CCOC1=C(C(=O)c2ccc(S(C)(=O)=O)c(Cn3nc(C)oc3=O)c2Cl)C(=O)CCC1 [Compound 32] | better herbicidal activities | 65 | 90 | 98 | 100 | better herbicidal activities | 60 | 90 | 95 | 100 | better herbicidal activities | 50 | 75 | 85 | 90 | better herbicidal activities | 55 | 80 | 90 | 95 | –
4 | Cc1nn(Cc2c(S(=O)(=O)C(C)C)ccc(C(=O)c3c(C)nn(C)c3O)c2Cl)c(=O)o1 [Compound 100, 1,3-dimethyl-4-{2-chloro-3-[(5-methyl-2-oxo-1,3,4-oxadiazol-3 (2H)yl)methyl]-4-isopropylsulfonylbenzoyl}-5-hydroxypyrazole] | – | – | – | – | – | – | – | – | – | – | – | – | – | – | – | – | – | – | – | – | inhibitory effect on corn (crop safety) [5]: no significant inhibitory effect; Corn (%) safety (crop damage) ([5]; dose 37.5 g a.i/ha): 0%; Corn (%) safety (crop damage) ([5]; dose 75 g a.i/ha): 0%; Corn (%) safety (crop damage) ([5]; dose 150 g a.i/ha): 0%; Corn (%) safety (crop damage) [5, 8]: 0%; inhibitory effect on rice (crop safety) [6]: no significant inhibitory effect; Rice (%) safety (crop damage) ([6]; dose 37.5 g a.i/ha): 0%; Rice (%) safety (crop damage) ([6]; dose 75 g a.i/ha): 0%; Rice (%) safety (crop damage) ([6]; dose 150 g a.i/ha): 0%; Rice (%) safety (crop damage) ([6]; dose 300 g a.i/ha): 2%
5 | CCS(=O)(=O)c1ccc(C(=O)C2C(=O)CCCC2=O)c(Cl)c1Cn1nc(C)oc1=O [Compound 6] | – | – | – | – | – | – | – | – | – | – | – | – | – | – | – | – | – | – | – | – | inhibitory effect on corn (crop safety) [5]: no significant inhibitory effect; Corn (%) safety (crop damage) ([5]; dose 37.5 g a.i/ha): 0%; Corn (%) safety (crop damage) ([5]; dose 75 g a.i/ha): 0%; Corn (%) safety (crop damage) ([5]; dose 150 g a.i/ha): 0%; Corn (%) safety (crop damage) [5, 8]: 5%; inhibitory effect on rice (crop safety) [6]: no significant inhibitory effect; Rice (%) safety (crop damage) ([6]; dose 37.5 g a.i/ha): 0%; Rice (%) safety (crop damage) ([6]; dose 75 g a.i/ha): 0%; Rice (%) safety (crop damage) ([6]; dose 150 g a.i/ha): 5%; Rice (%) safety (crop damage) ([6]; dose 300 g a.i/ha): 10%
6 | Cc1nn(Cc2c(S(C)(=O)=O)ccc(C(=O)c3c(C)nn(C)c3OC(=O)c3cn(C)nc3C(F)(F)F)c2Cl)c(=O)o1 [Compound 166] | better herbicidal activities | 65 | 88 | 92 | 95 | better herbicidal activities | 60 | 85 | 90 | 93 | better herbicidal activities | 50 | 75 | 80 | 85 | better herbicidal activities | 55 | 80 | 85 | 90 | –
7 | Cc1nn(Cc2c(S(C)(=O)=O)ccc(C(=O)C3C(=O)CCCC3=O)c2Cl)c(=O)o1 [Compound 1] | better herbicidal activities | 65 | 90 | 98 | 100 | better herbicidal activities | 60 | 90 | 95 | 100 | better herbicidal activities | 50 | 75 | 85 | 95 | better herbicidal activities | 55 | 80 | 90 | 98 | –
8 | Cc1nn(Cc2c(S(C)(=O)=O)ccc(C(=O)c3c(C)nn(C)c3OC(=O)c3c(C(F)(F)F)nn(C)c3Cl)c2Cl)c(=O)o1 [Compound 204] | better herbicidal activities | 55 | 80 | 90 | 98 | better herbicidal activities | 52 | 70 | 90 | 97 | better herbicidal activities | 45 | 64 | 80 | 88 | better herbicidal activities | 50 | 70 | 85 | 90 | –
